Some test systems named below: HOP-18; KM-20L2; LXFL 529; M19-MEL; RXF 631; SNB-78; XF498.
What all share (test): inhibition of tumour cell growth, NCI panel, 48 h

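Tested at 5 concentrations; 48 h exposure; 96-well plates; endpoints linearly interpolated, else capped at highest concentration. GI50 is the concentration that inhibits growth by half.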 Calls of active or inactive are those of the source. Rule as the data show it: active = GI50 up to about 1.1 µM and inactive = higher.

For `O=C(COc1ccccc1)NS(=O)(=O)c1ccccc1`, the GI50 with HOP-18, in the test on KM-20L2, in the test with LXFL 529, in the test with M19-MEL, with RXF 631 and with SNB-78 was > 100 µM (inactive) throughout.

For `CC(=O)NNc1nc(C)c(C(/C=C/c2ccc(Cl)cc2)=N\N=C(N)N)s1`, the GI50 in the test with KM-20L2, in the test with LXFL 529, in the test with M19-MEL, with RXF 631, in the test on SNB-78 and in the test with XF498 was > 100 µM (inactive) each time.

As to `O=C1CSc2cc([N+](=O)[O-])ccc2N1`, the GI50 in the test on HOP-18, with KM-20L2, in the test on LXFL 529, with M19-MEL, in the test with RXF 631 and in the test on SNB-78 was > 100 µM (inactive) in each case. Moreover, in the test on XF498, the GI50 is > 100 µM (inactive).

Consider `N#CC(C(=O)CCC(=O)Nc1ccc(Cl)cc1)c1ccc(Cl)cc1` (stereo not given), for which the GI50 is 97.3 µM (inactive) in the test on HOP-18; 11.5 µM (inactive) in the test with KM-20L2; 9.33 µM (inactive) in the test with LXFL 529; > 100 µM (inactive) in the test on M19-MEL; > 100 µM (inactive) in the test with RXF 631; > 100 µM (inactive) with SNB-78. Moreover, the GI50 in the test with XF498 is > 100 µM (inactive).

`Cc1ccc(S(=O)(=O)N/N=C/c2oc(-c3ccccc3Cl)c(-c3ccccc3Cl)c2[N+](=O)[O-])cc1`: the GI50 in the test with KM-20L2 is 15.4 µM (inactive); in the test with M19-MEL it was 23.3 µM (inactive); in the test on RXF 631 it was 19.3 µM (inactive).

Take `Nc1c(S(=O)(=O)c2ccccc2)c2nc3ccccc3nc2n2c1nc1ccccc12`: the GI50 was > 100 µM (inactive) with KM-20L2; > 52 µM (inactive) in the test on LXFL 529; 29.8 µM (inactive) with M19-MEL; 16.9 µM (inactive) in the test with RXF 631; 26.4 µM (inactive) with SNB-78; 11.8 µM (inactive) with XF498.

`CCC(=O)c1c(NOC2OCC(OC(C)=O)C(OC(C)=O)C2OC(C)=O)nc(OC)n(C)c1=O` (stereo not given): the GI50 is < 0.01 µM (active) in the test on HOP-18; > 100 µM (inactive) in the test with KM-20L2; > 100 µM (inactive) in the test with LXFL 529; > 100 µM (inactive) in the test on M19-MEL; > 100 µM (inactive) in the test on SNB-78; > 100 µM (inactive) in the test on XF498.

As for `CCCCCCC1=NOC(C(c2cc[nH]c2)N(C)[C@H](C(=O)OC)C(C)C)C1` (stereo not given in full), the GI50 with HOP-18 is 58.1 µM (inactive); with KM-20L2, 39 µM (inactive); with LXFL 529 it was 46.8 µM (inactive); in the test with M19-MEL, 32 µM (inactive); with RXF 631, 36.6 µM (inactive); in the test on SNB-78 it was 21.3 µM (inactive). Further, the GI50 in the test with XF498 was 35.3 µM (inactive).

Turning to `CCOC(=O)C12CCCC1(O)N(NC(=O)c1cccc(Cl)c1)C(C)=C2C(=O)OC` (stereo not given), the GI50 in the test with KM-20L2 is > 100 µM (inactive); in the test with LXFL 529, > 100 µM (inactive); in the test with M19-MEL, > 100 µM (inactive); in the test with RXF 631 it was 55.7 µM (inactive); with XF498, > 100 µM (inactive).

As for `CN(C(=O)C12C3C4C1C1C2C3C41C(=O)C(C)(C)C)C(C)(C)C` (stereo not given), the GI50 in the test with KM-20L2, with LXFL 529, in the test on M19-MEL, with RXF 631, in the test with SNB-78 and in the test with XF498 was > 100 µM (inactive) throughout.

Take `CC(C)C(=O)N1C(=O)O[C@@H](c2ccccc2)[C@H]1C`: the GI50 with HOP-18, in the test on KM-20L2, with LXFL 529, with M19-MEL, in the test with SNB-78 and with XF498 was > 100 µM (inactive) in each case.

Consider `COc1cc2cc3c4c(cc(OC)c(OC)c4c2cc1OC)CCN3`, for which the GI50 in the test with HOP-18 is > 100 µM (inactive); in the test on KM-20L2 it was 27.5 µM (inactive); in the test on LXFL 529, 58.6 µM (inactive); with M19-MEL it was 12.9 µM (inactive); in the test with SNB-78, > 100 µM (inactive); in the test with XF498 it was > 100 µM (inactive).

In the case of `CN(C)C(=S)OC(Cn1cncn1)c1ccc(Cl)cc1Cl` (stereo not given), the GI50 in the test with HOP-18, in the test with KM-20L2, with LXFL 529, in the test with M19-MEL and in the test with RXF 631 was > 100 µM (inactive) each time.

In the case of `O=S(O)CCCCSSCCCCS(=O)(=O)S`, the GI50 was 84.3 µM (inactive) in the test on HOP-18; > 100 µM (inactive) in the test with KM-20L2; 22.2 µM (inactive) with LXFL 529; 12.1 µM (inactive) with M19-MEL; 51.9 µM (inactive) with RXF 631; 35.1 µM (inactive) in the test with SNB-78. Further, the GI50 with XF498 is 15.3 µM (inactive).

For the compound `COC(=O)CC(C(C(C)=O)C(=O)OCc1ccccc1)N1C(=O)OCC1c1ccccc1` (stereo not given), the GI50 in the test with KM-20L2 was > 100 µM (inactive); with LXFL 529, 83.2 µM (inactive); in the test on M19-MEL, > 100 µM (inactive); in the test on RXF 631, > 100 µM (inactive); with XF498 it was 53.5 µM (inactive).

Regarding `COC(=O)C1CC(=O)O[C@H]1c1ccc(OC)c(OC)c1` (stereo not given in full), the GI50 with HOP-18, in the test with KM-20L2, in the test with LXFL 529, in the test on M19-MEL, in the test on RXF 631 and in the test on SNB-78 was > 100 µM (inactive) throughout. Moreover, the GI50 in the test with XF498 is > 100 µM (inactive).

The values are drawn from ChEMBL document CHEMBL1201862, “PubChem BioAssay data set” (2004).
